Among the data in patent US20240368106A1, “HYDROXY AND ALKOXY COUMARINS AS MODULATORS OF POLRMT” (Pretzel Therapeutics, Inc., priority 2021, published 2024) are IC50 values, retold here.

The target in this assay is POLRMT (Homo sapiens (Human), UniProt O00411). The assay can be described thus: homogeneous TR-FRET assay of mitochondrial transcription (inhibition of POLRMT). The assay is classed as biochemical. The conditions noted are these: 7.5 nM POLRMT, 15 nM TFB2M, 30 nM TFAM, 0.5 nM DNA template, 500 μM NTPs, 37° C., 60 minutes. As for the experimental part:
The inhibitory activity of the compounds of the present invention against POLRMT were determined by assays based on Bergbrede, T., et al., “An adaptable high-throughput technology enabling the identification of specific transcription modulators,” SLAC Discov., 22, 378-386 (2017).
The ability of some compounds of the present invention to inhibit POLRMT were determined in a homogeneous TR-FRET Assay using high-throughput screening in a 384-well plate format. This method is used to monitor the activity of mitochondrial transcription through measurement of its product, a 407 bp long RNA transcript. Detection of the product is facilitated by hybridization of two DNA-oligonucleotide probes to specific and adjacent sequences within the RNA product sequence. Upon annealing of the probes, two fluorophores are coupled directly to an acceptor nucleotide probe (ATT0647, 5′), or introduced via a coupled streptavidin with a biotinylated donor nucleotide probe (Europium cryptate) that is brought into sufficient proximity to serve as a fluorescence-donor-acceptor pair. Thus, a FRET signal at 665 nm is generated upon excitation at 340 nm.
Proteins used as transcription factors (POLRMT: NP_005026.3, TFAM: NP_003192.1, TFB2M: NP_071761.1) are diluted from their stocks to working concentrations of 1 μM, 20 μM and 4 μM respectively, in a dilution buffer containing 20 mM Tris-HCl (pH 8.0), 200 mM NaCl, 10% (v/v) glycerol, 1 mM Dithiothreitol (DTT), 0.5 mM EDTA.
DNA template is a pUC18 plasmid with the mitochondrial light strand promotor sequence (1-477) cloned between HindIII and BamHI sites. The DNA template is restriction linearized proximal to the promotor 3′-end (pUC-LSP). The reaction mixture (10 uL) containing 7.5 nM POLRMT, 15 nM of TFB2M, 30 nM of TFAM, 0.5 nM of DNA template and 500 μM nucleotide triphosphate mix (NTPs) in a reaction buffer (containing 10 mM Tris-HCl (pH 7.5), 10 mM MgCl2, 40 mM NaCl, 10 mM DTT, 0.005% (w/v) Tween-20, 160 units/ml Rnase inhibitor and 0.1 mg/mL BSA) are dispensed to compounds in microplates, using a Thermo Multidrop® dispenser, and incubated at 37° C. in a VWR INCU-Line incubator for 60 minutes after mixing. No nucleotide triphosphate mix is added to negative control samples. Microplates with compounds to be tested in the assay are prepared from 10 mM compound stocks in 100% DMSO, equal amounts of DMSO without any compound are added to positive control and negative control samples.
During the incubation, a mix of the detection reagents is prepared in a buffer such that the enzymatic reaction is terminated due to chelating of Mg-ions and increased ionic strength, containing 50 mM Tris-HCl (pH 7.5), 700 mM NaCl, 20 mM EDTA, and 0.010% (w/v) Tween-20. Europium-streptavidin is pre-incubated with a 200-fold molar excess of a random sequence oligonucleotide to block unspecific binding of oligo, for two hours at ambient temperature in the dark. Afterwards, the blocked Europium-streptavidin is kept on ice until use.
At the end of the enzymatic reaction time, 5 μL detection oligo mix in the detection buffer is added, and assay plates are mixed and kept at ambient temperature for one hour, protected from light. The concentration of the Acceptor nucleotide oligo (e.g., ATTO647N-5′-[…]-3′) and Donor nucleotide oligo (e.g., bio-5′-AACACATCTCT(-bio)GCCAAACCCCA-bio-3′) in each assay well is 1 nM, and 3 nM, respectively.
After incubation with oligo mix, 5 μL of pre-blocked Europium-streptavidin reagent is dispensed to each assay well, assay plates are again mixed and kept at ambient temperature for one hour, protected from light.
The generated signal is measured with BMG Pherastar microtiter plate reader with a TRF light unit, using excitation at 340 nm, an integration time of 200 μs, and a delay time of 100 μs, before detection at 620 nm and 665 nm. The ratio of donor- and acceptor-fluorescence is used as a measure of the generated transcript product (i.e. enzymatic activity).

Chain of POLRMT (O00411 42-1230): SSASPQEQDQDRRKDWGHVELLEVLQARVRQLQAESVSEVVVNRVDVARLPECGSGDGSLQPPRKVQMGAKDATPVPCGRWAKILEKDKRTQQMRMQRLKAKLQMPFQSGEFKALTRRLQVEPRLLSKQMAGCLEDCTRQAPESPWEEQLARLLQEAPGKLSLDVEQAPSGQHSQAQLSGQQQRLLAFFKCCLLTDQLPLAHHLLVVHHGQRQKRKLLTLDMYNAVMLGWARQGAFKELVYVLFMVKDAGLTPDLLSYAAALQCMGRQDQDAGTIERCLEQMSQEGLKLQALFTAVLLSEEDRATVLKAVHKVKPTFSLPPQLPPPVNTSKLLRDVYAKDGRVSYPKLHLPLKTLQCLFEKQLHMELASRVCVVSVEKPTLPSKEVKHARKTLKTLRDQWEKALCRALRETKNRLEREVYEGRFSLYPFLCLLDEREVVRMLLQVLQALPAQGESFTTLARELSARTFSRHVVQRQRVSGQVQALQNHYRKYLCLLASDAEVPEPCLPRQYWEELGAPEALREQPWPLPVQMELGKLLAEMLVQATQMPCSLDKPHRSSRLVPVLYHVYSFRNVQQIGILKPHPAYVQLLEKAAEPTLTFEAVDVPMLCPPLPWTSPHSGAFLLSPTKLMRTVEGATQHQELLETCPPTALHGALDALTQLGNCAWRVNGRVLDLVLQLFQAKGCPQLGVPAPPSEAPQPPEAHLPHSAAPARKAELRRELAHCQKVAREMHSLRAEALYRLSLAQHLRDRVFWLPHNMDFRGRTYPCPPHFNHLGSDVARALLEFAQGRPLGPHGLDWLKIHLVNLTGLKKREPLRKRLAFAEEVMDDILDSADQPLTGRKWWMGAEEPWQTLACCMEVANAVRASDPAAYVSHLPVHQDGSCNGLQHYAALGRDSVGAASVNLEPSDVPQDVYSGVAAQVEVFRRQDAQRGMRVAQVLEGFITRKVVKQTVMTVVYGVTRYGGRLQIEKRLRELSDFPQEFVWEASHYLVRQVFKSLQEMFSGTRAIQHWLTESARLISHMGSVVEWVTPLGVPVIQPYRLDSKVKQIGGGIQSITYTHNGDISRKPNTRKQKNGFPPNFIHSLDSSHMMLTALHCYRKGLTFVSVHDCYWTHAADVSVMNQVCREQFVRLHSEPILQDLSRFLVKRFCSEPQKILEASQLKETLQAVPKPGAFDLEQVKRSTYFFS

For `COCC(Oc1ccc2c(-c3ccccc3C)cc(=O)oc2c1)C(=O)N1CCC1` (single isomer, unassigned) [Example 89, 7-((1-(azetidin-1-yl)-3-methoxy-1-oxopropan-2-yl)oxy)-4-(o-tolyl)-2H-chromen-2-one], the IC50 was found to be 0.2 µM.
Take `COCC(Oc1ccc2c(-c3ccccc3C)cc(=O)oc2c1)C(=O)N1CCC1` (single isomer, unassigned) [Example 90, 7-((1-(azetidin-1-yl)-3-methoxy-1-oxopropan-2-yl)oxy)-4-(o-tolyl)-2H-chromen-2-one]: inhibition was half-maximal at 10 µM (IC50).
As for `CNC(=O)C(COC)Oc1ccc2c(-c3ccccc3Cl)cc(=O)oc2c1` (single isomer, unassigned) [Example 91, 2-((4-(2-chlorophenyl)-2-oxo-2H-chromen-7-yl)oxy)-3-methoxy-N-methylpropanamide], half-maximal inhibition (IC50) required 14 µM.
As to `CNC(=O)C(COC)Oc1ccc2c(-c3ccccc3Cl)cc(=O)oc2c1` (single isomer, unassigned) [Example 92, 2-((4-(2-chlorophenyl)-2-oxo-2H-chromen-7-yl)oxy)-3-methoxy-N-methylpropanamide], the IC50 was determined as 0.4 µM.
`COCC(Oc1ccc2c(-c3ccccc3Cl)cc(=O)oc2c1)C(=O)N(C)C` (single isomer, unassigned) [Example 93, 2-((4-(2-chlorophenyl)-2-oxo-2H-chromen-7-yl)oxy)-3-methoxy-N,N-dimethylpropanamide] returned an IC50 of 18 µM.
As for `COCC(Oc1ccc2c(-c3ccccc3Cl)cc(=O)oc2c1)C(=O)N(C)C` (single isomer, unassigned) [Example 94, 2-((4-(2-chlorophenyl)-2-oxo-2H-chromen-7-yl)oxy)-3-methoxy-N,N-dimethylpropanamide], the IC50 was found to be 0.09 µM.
`COCC(Oc1ccc2c(-c3ccccc3Cl)cc(=O)oc2c1)C(N)=O` (single isomer, unassigned) [Example 95, 2-((4-(2-chlorophenyl)-2-oxo-2H-chromen-7-yl)oxy)-3-methoxypropanamide] yielded an IC50 of 14 µM.
On to `COCC(Oc1ccc2c(-c3ccccc3Cl)cc(=O)oc2c1)C(N)=O` (single isomer, unassigned) [Example 96, 2-((4-(2-chlorophenyl)-2-oxo-2H-chromen-7-yl)oxy)-3-methoxypropanamide], for which the IC50 was 0.5 µM.
Regarding `CNC(=O)C(CO)Oc1ccc2c(-c3ccccc3C)cc(=O)oc2c1` (single isomer, unassigned) [Example 97, 3-hydroxy-N-methyl-2-[4-(o-tolyl)-2-oxo-chromen-7-yl]oxy-propanamide], it took 5 µM to reach half-maximal inhibition (IC50).
`CNC(=O)C(CO)Oc1ccc2c(-c3ccccc3C)cc(=O)oc2c1` (single isomer, unassigned) [Example 98, 3-hydroxy-N-methyl-2-[4-(o-tolyl)-2-oxo-chromen-7-yl]oxy-propanamide] came in with an IC50 of more than 100 µM.
For `Cc1ccccc1-c1cc(=O)oc2cc(O)ccc12` [Example 01, 7-hydroxy-4-(o-tolyl)-2H-chromen-2-one] the value was 3 µM; for `CCCOc1ccc2c(-c3ccccc3C)cc(=O)oc2c1` [Example 02, 7-propoxy-4-(o-tolyl)-2H-chromen-2-one], 0.09 µM.
For `Cc1ccccc1-c1cc(=O)oc2cc(OCCO)ccc12` [Example 03, 7-(2-hydroxyethoxy)-4-(o-tolyl)-2H-chromen-2-one] the value was 2 µM; for `COc1ccc2c(-c3ccccc3C)cc(=O)oc2c1` [Example 04, 7-methoxy-4-(o-tolyl)-2H-chromen-2-one], 2 µM.
For `Cc1ccccc1-c1cc(=O)oc2cc(OC(C)C)ccc12` [Example 05, 7-isopropoxy-4-(o-tolyl)-2H-chromen-2-one], half-maximal inhibition (IC50) required 0.1 µM.
For `Cc1ccccc1-c1cc(=O)oc2cc(Oc3ccccc3)ccc12` [Example 06, 7-phenoxy-4-(o-tolyl)-2H-chromen-2-one], 0.6 µM corresponded to half-maximal inhibition (IC50).
Molecule `Cc1ccccc1-c1cc(=O)oc2cc(OCCc3ccccc3)ccc12` [Example 07, 7-phenethoxy-4-(o-tolyl)-2H-chromen-2-one] registered an IC50 of 4 µM.
The molecule `Cc1ccccc1-c1cc(=O)oc2cc(OCCN(C)C)ccc12` [Example 08, 7-(2-(dimethylamino)ethoxy)-4-(o-tolyl)-2H-chromen-2-one] returned an IC50 of 94 µM.
For `COCCOc1ccc2c(-c3ccccc3C)cc(=O)oc2c1` [Example 09, 7-(2-methoxyethoxy)-4-(o-tolyl)-2H-chromen-2-one] the value was 0.9 µM; for `CNC(=O)CCOc1ccc2c(-c3ccccc3C)cc(=O)oc2c1` [Example 12, N-methyl-3-((2-oxo-4-(o-tolyl)-2H-chromen-7-yl)oxy)propanamide], 7 µM.
For `O=c1cc(-c2ccc(F)cc2Cl)c2ccc(O)cc2o1` [Example 13, 4-(2-chloro-4-fluorophenyl)-7-hydroxy-2H-chromen-2-one] the value was 3 µM; for `COCC(Oc1ccc2c(-c3ccc(F)cc3Cl)cc(=O)oc2c1)C(=O)OC` (centres unmarked) [Example 14, methyl 2-((4-(2-chloro-4-fluorophenyl)-2-oxo-2H-chromen-7-yl)oxy)-3-methoxypropanoate], 0.2 µM.
In the case of `O=C([C@@H](CO)Oc1ccc2c(-c3ccc(F)cc3Cl)cc(=O)oc2c1)N1CCCCC1` [Example 15, (R)-4-(2-chloro-4-fluorophenyl)-7-((3-hydroxy-1-oxo-1-(piperidin-1-yl)propan-2-yl)oxy)-2H-chromen-2-one], the IC50 came to 0.4 µM.
The same measure for `Cc1cc(O)cc2oc(=O)cc(-c3ccc(F)cc3)c12` [Example 16, 4-(4-fluorophenyl)-7-hydroxy-5-methyl-2H-chromen-2-one]: more than 100 µM.
As to `Cc1cc(O[C@H](C)C(=O)N2CCCCC2)cc2oc(=O)cc(-c3ccc(F)cc3)c12` [Example 19, 4-(4-fluorophenyl)-5-methyl-7-[(1R)-1-methyl-2-oxo-2-(1-piperidyl)ethoxy]chromen-2-one], half-maximal inhibition (IC50) required 0.5 µM.
`Cc1cc(O[C@H](C)C(=O)N(C)C)cc2oc(=O)cc(-c3ccc(F)cc3)c12` [Example 20, (R)-2-((4-(4-fluorophenyl)-5-methyl-2-oxo-2H-chromen-7-yl)oxy)-N,N-dimethylpropanamide] had an IC50 of 2 µM.
In turn, `COc1ccc2c(-c3ccc(F)cc3Cl)cc(=O)oc2c1` [Example 21, 4-(2-chloro-4-fluorophenyl)-7-methoxy-2H-chromen-2-one] gave an IC50 of 4 µM.
Regarding `Cc1cc(O)cc2oc(=O)cc(-c3ccccc3)c12` [Example 22, 7-hydroxy-5-methyl-4-phenyl-2H-chromen-2-one], the IC50 worked out at 34 µM.
In turn, `Cc1cc(OC(C)C)cc2oc(=O)cc(-c3ccccc3)c12` [Example 23, 7-isopropoxy-5-methyl-4-phenyl-2H-chromen-2-one] displayed an IC50 of 87 µM.
`Cc1cc(OCC(C)C)cc2oc(=O)cc(-c3ccccc3)c12` [Example 24, 7-isobutoxy-5-methyl-4-phenyl-2H-chromen-2-one] returned an IC50 of 93 µM.
`Cc1ccccc1-c1cc(=O)oc2cc(OC3CCOCC3)ccc12` [Example 28, 7-((tetrahydro-2H-pyran-4-yl)oxy)-4-(o-tolyl)-2H-chromen-2-one] came in with an IC50 of 0.5 µM.
As for `Cc1ccccc1-c1cc(=O)oc2cc(OCC3CCOCC3)ccc12` [Example 29, 7-((tetrahydro-2H-pyran-4-yl)methoxy)-4-(o-tolyl)-2H-chromen-2-one], the IC50 was 1 µM.
